# Measured values: patent US20160074338A1, “FOOD COMPOSITION FOR PREVENTING OBESITY, PHARMACEUTICAL COMPOSITION FOR TREATING OBESITY, AND ANIMAL MEDICINE FOR TREATING OBESITY, CONTAINING GINGERNONE A” (SNU R&DB Foundation, priority 2011, published 2016)
# Experiments:
# Format in all cases: cell-based
# C/EBPα = assay: Western blotting of C/EBPα protein expression in differentiating 3T3-L1 cells; conditions: MDI-differentiated 3T3-L1 cells; for C/EBPα expression level: 40 μM, FIG. 5 comparison
# Procedure: (§1) In Experimental Example 4, it was confirmed by Western blotting that gingerenone A affects important transcriptional factors, C/EBPα and PPARγ, and FAS protein expressed by a transcriptional factor thereof, expressed upon fat cell differentiation (B. L. Upham et al., Carcinogenesis. 18:37-42, 1997).
# (§2) Post-confluent 3T3-L1 cells were cultured in DMEM supplemented with MDI, 10% FBS and 10 ml/L of antibiotic-antimycotic agent. In this media, we additionally treated with or without gingerenone A (10, 20 and 40 μM) for 2 days. For the next 2 to 4 days, the cells were further cultured. Here, the culture media was prepared by adding gingerenone A at concentrations of 10, 20 and 40 μM to DMEM media comprising insulin, 10% FBS and 1% antibiotic-antimycotic agent. For the next 4 to 6 days, the cells were further cultured in media comprising 10% FBS, 1% antibiotic-antimycotic agent and gingerenone A. Here, gingerenone A was added at concentrations of 10, 20 and 40 μM to the DMEM media. To extract protein from the cultured cells, after washing two times with cold PBS (phosphate buffered saline), the cells were lysed with a protein extraction solution. The protein extraction solution was RIPA buffer (50 mM, Tris pH 8.0, 150 mM NaCl, 1% NP-40, 5 mM EDTA and 1 mM PMSF) comprising 0.5% protease inhibitor (SIGMA-ALDRICH) and 0.5% phosphatase inhibitor (250 mM sodium fluoride, 5 mM sodium orthovanadate, 50 mM sodium pyrophosphate and 50 mM glycerophosphate). The cell lysates were centrifuged at 4° C. for 20 minutes at a rate of 12000 rpm. Supernatant formed by centrifugation was transferred to new 1.5 mL Eppendorf tubes. The protein content of the supernatants was determined using a DC assay kit (Bio-Rad Corp., Richmond, Calif., USA). The DC assay kit uses BSA (bovine serum albumin) as a standard solution. After mixing 20 to 50 μg of the protein with a sample buffer comprising bromophenol blue and denaturing the protein at 100° C. for 5 minutes, the denatured proteins were separated on a 12% SDS-polyacrylamide gel. […]
# [1] = tested on: FAS (fatty acid synthase); assay: Western blotting of FAS protein expression in differentiating 3T3-L1 cells; conditions: MDI-differentiated 3T3-L1 cells; for FAS expression level: 40 μM, FIG. 5 comparison
# Procedure: as §1, §2
# 3T3-L1 cells [2] = assay: MTT analysis of viability of 3T3-L1 cells
# Procedure: In Experimental Example 2, in order to measure the toxicity of 3T3-L1 cells in the presence of varying concentrations of gingerenone A, MTT3-(4,5-Dimethylthiazol-2-yl)-2,5diphenyltetrazolium bromide) analysis was conducted.
# First, after plating 3T3-L1 cells into 96 well plates, the cells were cultured until the 3T3-L1 cells became confluent. Thereafter, the 3T3-L1 cells were treated with gingerenone A at concentrations of 10, 20 and 40 μM. After culturing for 24 and 48 hours, MTT was added to the cultured cells to a concentration of 0.5 mg/ml. The treated cells were cultured for 4 hours at 37° C. in a 5% CO2 incubator. Thereafter, the media was removed and 200 μl of DMSO (dimethylsulfoxide) was added to measure absorbance at a wavelength of 570 nm using an absorbance reader (Versa Max, Molecular Device, California, USA). Cell viability was determined as a percentage with respect to a control treated with only MDI (0.5 mM of isobutyl-methylxanthine, 1 μM of dexamethasone and 10 μg/ml of insulin).
# PPARγ = assay: Western blotting of PPARγ protein expression in differentiating 3T3-L1 cells; conditions: MDI-differentiated 3T3-L1 cells
# Procedure: as §1
# Post-confluent 3T3-L1 cells were cultured in DMEM supplemented with MDI, 10% FBS and 10 ml/L of antibiotic-antimycotic agent. In this media, we additionally treated with or without gingerenone A (10, 20 and 40 μM) for 2 days. For the next 2 to 4 days, the cells were further cultured. Here, the culture media was prepared by adding gingerenone A at concentrations of 10, 20 and 40 μM to DMEM media comprising insulin, 10% FBS and 1% antibiotic-antimycotic agent. For the next 4 to 6 days, the cells were further cultured in media comprising 10% FBS, 1% antibiotic-antimycotic agent and gingerenone A. Here, gingerenone A was added at concentrations of 10, 20 and 40 μM to the DMEM media. To extract protein from the cultured cells, after washing two times with cold PBS (phosphate buffered saline), the cells were lysed with a protein extraction solution. […] The protein content of the supernatants was determined using a DC assay kit (Bio-Rad Corp., Richmond, Calif., USA). […]
# 3T3-L1 cells [3] = assay: Oil red O staining of fat accumulation in MDI-differentiated 3T3-L1 cells; conditions: 10, 20 and 40 μM, 6 days, dependent on concentration
# Procedure: In Experimental Example 3, to analyze the suppressive effects of gingerenone A on fat accumulation, oil red 0 staining was performed after inducing differentiation of the pre-adipocytes (K. Tobe et al., FEBS Lett, 215(2):345-9, 1987).
# The 3T3-L1 cells (ATCC, Gaithersburg, Md.), representing pre-adipocytes, were plated into 24-well plates. The plated 3T3-L1 cell line was cultured in DMEM (Dulbecco-modified Eagle medium, WELGENE) with 10% FBS (fetal bovine serum) and 10 ml/L of antibiotic-antimycotic agent at 37° C. in a 5% CO2 incubator (MCO-15AC, SANYO E&E, Europe) until the cells reached 100% confluence.
# When the 3T3-L1 cells reached 100% confluence, the cells were further cultured for 2 days in DMEM medium, in which MDI was added, with 10 ml/L of antibiotic-antimycotic agent and 10% fetal bovine serum (FBS). The media was replaced with DMEM containing 10 ml/L of insulin, 10% FBS and 10 ml/L of antibiotic-antimycotic agent for another 2 days. Thereafter, the media was changed to DMEM medium only comprising 10 ml/L of antibiotic-antimycotic agent and 10% FBS. […]
# When 3T3-L1 cells were differentiated in the presence of MDI, gingerenone A was added at concentrations of 10, 20 and 40 μM to the cell culture media every third day from the day of MDI addition. […] The concentration was measured at a wavelength of 515 nm using an absorbance reader.
SMILES,C/EBPα expression level (C/EBPα),FAS expression level [1],"cytotoxicity (viability of 3T3-L1 cells) (3T3-L1 cells [2]; 40 μM, 24 and 48 hours after treatment)","cytotoxicity (MTT analysis) (3T3-L1 cells [2]; 3T3-L1 pre-adipocytes treated with 10, 20 and 40 μM)","PPARγ expression level (PPARγ; 40 μM, FIG. 5 comparison)","PPARγ protein expression level (PPARγ; 10, 20 and 40 μM, FIG. 4)","C/EBPα protein expression level (C/EBPα; 10, 20 and 40 μM, FIG. 4)",cellular fat content (oil red O staining) (3T3-L1 cells [3]),"FAS protein expression level ([1]; 10, 20 and 40 μM, FIG. 4)"
"CCCCC[C@H](O)CC(=O)CCc1ccc(O)c(OC)c1 [gingerol, reference compound]",slightly reduced,slightly reduced,,,,,,,
COc1cc(CC/C=C/C(=O)CCc2ccc(O)c(OC)c2)ccc1O [gingerenone A],considerably reduced,considerably reduced,not observed,not observed,considerably reduced,reduced,reduced,decreased,reduced
